Test: xn = mol fraction of the nth substance listed
Details: 101 kPa, Liquid, Vibrating tube method

COC(C)(C)C [2-methoxy-2-methylpropane] + CO
mass density [kg/m3]
Details | 293.15 K | 298.15 K | 303.15 K | 308.15 K
x1 = 0.01 | 790.62 | 785.93 | 781.19 | 776.42
x1 = 0.0201 | 789.69 | 785 | 780.24 | 775.46
x1 = 0.0301 | 788.74 | 784.01 | 779.26 | 774.46
x1 = 0.0402 | 787.83 | 783.09 | 778.32 | 773.51
x1 = 0.0502 | 786.96 | 782.24 | 777.44 | 772.61
x1 = 0.0601 | 786.1 | 781.36 | 776.57 | 771.73
x1 = 0.0696 | 785.32 | 780.58 | 775.75 | 770.9
x1 = 0.0799 | 784.47 | 779.71 | 774.88 | 770.02
x1 = 0.0888 | 783.72 | 778.95 | 774.12 | 769.25
x1 = 0.1008 | 782.79 | 778 | 773.16 | 768.27
x1 = 0.1498 | 779.11 | 774.25 | 769.36 | 764.43
x1 = 0.1945 | 776.01 | 771.13 | 766.21 | 761.24
x1 = 0.26 | 771.99 | 767.08 | 762.1 | 757.08
x1 = 0.3006 | 769.58 | 764.65 | 759.64 | 754.59
x1 = 0.3482 | 766.92 | 761.97 | 756.93 | 751.87
x1 = 0.3841 | 765.07 | 760.07 | 755.01 | 749.92
x1 = 0.4527 | 761.67 | 756.67 | 751.59 | 746.45
x1 = 0.5004 | 759.46 | 754.42 | 749.29 | 744.12
x1 = 0.5458 | 757.52 | 752.46 | 747.32 | 742.12
x1 = 0.6009 | 755.29 | 750.18 | 745.03 | 739.81
x1 = 0.6459 | 753.48 | 748.37 | 743.18 | 737.93
x1 = 0.7014 | 751.36 | 746.23 | 741.01 | 735.74
x1 = 0.7449 | 749.75 | 744.6 | 739.36 | 734.07
x1 = 0.7986 | 747.76 | 742.58 | 737.33 | 732.01
x1 = 0.8504 | 745.92 | 740.74 | 735.47 | 730.13
x1 = 0.8978 | 744.27 | 739.05 | 733.78 | 728.43
x1 = 0.9091 | 743.88 | 738.66 | 733.39 | 728.04
x1 = 0.9184 | 743.53 | 738.33 | 733.04 | 727.69
x1 = 0.9259 | 743.26 | 738.07 | 732.78 | 727.43
x1 = 0.9379 | 742.81 | 737.6 | 732.32 | 726.97
x1 = 0.9473 | 742.48 | 737.28 | 732 | 726.65
x1 = 0.9598 | 742.06 | 736.83 | 731.56 | 726.21
x1 = 0.9706 | 741.68 | 736.46 | 731.17 | 725.82
x1 = 0.9791 | 741.36 | 736.13 | 730.85 | 725.49
x1 = 0.9881 | 741.04 | 735.82 | 730.53 | 725.18

Source: the NIST ThermoML archive (doi:10.1016/j.jct.2011.02.018)
